Reference: ChEMBL document CHEMBL5154679, “A target and efficient synthetic strategy for structural and bioactivity optimization of a fungal natural product” (Eur J Med Chem, 2022)
Values after ≈ are worked out from the molar mass of the structure shown. Active and inactive are the calls of the source. The rule behind the calls is not given here.

Experiments:
HCT-116 [1] = assay: Antiproliferative activity against human HCT-116 cells assessed as reduction in cell viability incubated for 48 hrs by SRB assay; format: functional, cell-based; details: HCT-116, 48 h
MGC-803 = assay: Antiproliferative activity against human MGC-803 cells assessed as reduction in cell viability incubated for 48 hrs by SRB assay; format: functional, cell-based; details: MGC-803, 48 h
HeLa [2] = assay: Antiproliferative activity against human HeLa cells assessed as reduction in cell viability incubated for 48 hrs by SRB assay; format: functional, cell-based
HepG2 = assay: Antiproliferative activity against human HepG2 cells assessed as reduction in cell viability incubated for 48 hrs by SRB assay; format: functional, cell-based; details: HepG2, 48 h
[3] = Cytotoxicity against human L02 cells assessed as reduction in cell viability incubated for 48 hrs by SRB assay; format: toxicity, cell-based
[4] = Cytotoxicity against human HUVEC cells assessed as reduction in cell viability incubated for 48 hrs by SRB assay; format: toxicity, cell-based
MDA-MB-231 [5] = assay: Antiproliferative activity against human MDA-MB-231 cells assessed as reduction in cell viability incubated for 48 hrs by SRB assay; format: functional, cell-based; details: MDA-MB-231, 48 h
[6] = Half life in Sprague-Dawley rat at 1 mg/kg, iv by LC-MS/MS analysis; format: ADME, organism-based; details: in vivo
[7] = Tmax in Sprague-Dawley rat at 1 mg/kg, iv by LC-MS/MS analysis; format: ADME, organism-based; details: in vivo
[8] = MRT (0 to t) in Sprague-Dawley rat at 1 mg/kg, iv by LC-MS/MS analysis; format: ADME, organism-based; details: in vivo
MDA-MB-231 [9] = assay: Anti-metastasis activity against human MDA-MB-231 cells assessed as inhibition of cell migration at 2 ug/ml measured after 24 hrs by scratch wound healing assay; format: functional, cell-based; details: dose 2.0 µg/ml
MCF7 [10] = assay: Inhibition of colony formation in human MCF7 cells at 2 ug/ml measured after 48 hrs by crystal violet staining based analysis; format: functional, cell-based; details: dose 2.0 µg/ml
MDA-MB-231 [11] = assay: Anti-invasive activity against human MDA-MB-231 cells assessed as inhibition of cell invasion at 2 ug/ml measured after 24 hrs by transwell assay; format: functional, cell-based; details: dose 2.0 µg/ml
[12] = Cmax in Sprague-Dawley rat at 1 mg/kg, iv by LC-MS/MS analysis; format: ADME, organism-based; parameters: dose 1 mg/kg, route iv; details: in vivo
[13] = MRT (0 to infinity) in Sprague-Dawley rat at 1 mg/kg, iv by LC-MS/MS analysis; format: ADME, organism-based; details: in vivo
HCT-116 [14] = assay: Inhibition of colony formation in human HCT-116 cells at 2 ug/ml measured after 48 hrs by crystal violet staining based analysis; format: functional, cell-based; details: dose 2.0 µg/ml
[15] = Volume of distribution in Sprague-Dawley rat at 1 mg/kg, iv by LC-MS/MS analysis; format: ADME, organism-based; details: in vivo
[16] = Clearance in Sprague-Dawley rat at 1 mg/kg, iv by LC-MS/MS analysis; format: ADME, organism-based; details: in vivo
[17] = AUC (0 to infinity) in Sprague-Dawley rat at 1 mg/kg, iv by LC-MS/MS analysis; format: ADME, organism-based; parameters: time infinity, dose 1 mg/kg, route iv; details: in vivo
[18] = AUC (0 to t) in Sprague-Dawley rat at 1 mg/kg, iv by LC-MS/MS analysis; format: ADME, organism-based; parameters: dose 1 mg/kg, route iv; details: in vivo
HeLa [19] = assay: Inhibition of colony formation in human HeLa cells at 2 ug/ml measured after 48 hrs by crystal violet staining based analysis; format: functional, cell-based; details: dose 2.0 µg/ml
MCF7 [20] = assay: Antiproliferative activity against human MCF7 cells assessed as reduction in cell viability incubated for 48 hrs by SRB assay; format: functional, cell-based; details: MCF7, 48 h
MDA-MB-231 [21] = assay: Anti-adhesion activity against human MDA-MB-231 cells assessed as inhibition of cell adhesion measured after 6 hrs by microscopic analysis; format: functional, cell-based

COc1cc(=O)oc(/C=C/C=C/C=C/[C@@]2(C)C[C@]3(C)O[C@H](C)[C@](C)(O2)[C@H]3C(=O)c2ccc(C#N)cc2)c1C
IC50 (HCT-116 [1]): 11.3 µg/mL (≈ 22 µM)

COc1cccc2c1C(=O)c1c(O)c3c(c(O)c1C2=O)C[C@@](O)(C(=O)CO)C[C@@H]3O[C@H]1C[C@H](N)[C@H](O)[C@H](C)O1 [DOXORUBICIN]
IC50 (MGC-803): 0.51 µg/mL (≈ 0.938 µM) | IC50 (HeLa [2]): 0.051 µg/mL (≈ 0.0938 µM) | IC50 (HepG2): 0.64 µg/mL (≈ 1.18 µM) | IC50 at 48 h [3]: > 50 µg/mL | IC50 at 48 h [4]: 23.3 µg/mL (≈ 42.9 µM) | IC50 (HCT-116 [1]): 3.36 µg/mL (≈ 6.18 µM) | IC50 (MDA-MB-231 [5]): 0.37 µg/mL (≈ 0.681 µM)

COc1cc(=O)oc(/C=C/C=C/C=C/[C@@]2(C)C[C@]3(C)O[C@H](C)[C@](C)(O2)[C@H]3C(=O)c2ccncc2)c1C
IC50 (HCT-116 [1]): 13.5 µg/mL (≈ 27.5 µM)

COc1cc(=O)oc(/C=C/C=C/C=C/[C@@]2(C)C[C@]3(C)O[C@H](C)[C@](C)(O2)[C@H]3C(=O)C(C)(C)C)c1C
IC50 (HCT-116 [1]): 4.98 µg/mL (≈ 10.6 µM)

COc1cc(=O)oc(/C=C/C=C/C=C/[C@]2(C)O[C@]3(C)[C@@H](O)[C@@](C)(O[C@@H]3C)[C@H]2O)c1C
half-life [6]: 21 min | Tmax [7]: 6 min | MRT last [8]: 19.8 min | Activity (MDA-MB-231 [9]): Active | inhibition (MCF7 [10]): Active | Activity (MDA-MB-231 [11]): Active | Cmax [12]: 417 ng/mL | MRT inf [13]: 21 min | inhibition (HCT-116 [14]): Active | IC50 (HCT-116 [1]): 14.9 µg/mL (≈ 35.6 µM) | Vd [15]: 2.5 L/kg | clearance [16]: 83.2 mL/min/kg | AUC(0-inf) [17]: 206 ng·h/mL | AUC(0-t) [18]: 203 ng·h/mL | inhibition (HeLa [19]): Active

COc1cc(=O)oc(/C=C/C=C/C=C/[C@]2(C)O[C@]3(C)[C@@H](C(=O)c4ccccc4)[C@@](C)(O[C@@H]3C)[C@H]2C(=O)c2ccccc2)c1C
IC50 (HCT-116 [1]): 28.8 µg/mL (≈ 48.4 µM)

COc1ccc(C(=O)[C@@H]2[C@@]3(C)O[C@@](C)(/C=C/C=C/C=C/c4oc(=O)cc(OC)c4C)C[C@]2(C)O[C@@H]3C)cc1
IC50 (HCT-116 [1]): 4.97 µg/mL (≈ 9.55 µM)

COc1cc(=O)oc(/C=C/C=C/C=C/[C@@]2(C)C[C@]3(C)O[C@H](C)[C@](C)(O2)[C@H]3C(=O)c2ccco2)c1C
IC50 (MGC-803): 5.79 µg/mL (≈ 12 µM) | IC50 (HeLa [2]): 1.48 µg/mL (≈ 3.08 µM) | IC50 (HepG2): 4.19 µg/mL (≈ 8.72 µM) | IC50 at 48 h [3]: > 50 µg/mL | IC50 at 48 h [4]: > 50 µg/mL | IC50 (HCT-116 [1]): 1.4 µg/mL (≈ 2.91 µM) | IC50 (MCF7 [20]): 0.74 µg/mL (≈ 1.54 µM) | IC50 (MDA-MB-231 [5]): 4.46 µg/mL (≈ 9.28 µM)

CCC[C@H]1[C@@]2(C)O[C@H](C)[C@]1(C)O[C@@](C)(/C=C/C=C/C=C/c1oc(=O)cc(OC)c1C)[C@@H]2CCC
IC50 (HCT-116 [1]): 4.29 µg/mL (≈ 9.12 µM)

COc1cc(=O)oc(/C=C/C=C/C=C/[C@@]2(C)C[C@]3(C)O[C@H](C)[C@](C)(O2)[C@H]3C(=O)c2ccccc2)c1C
IC50 (MGC-803): 3.97 µg/mL (≈ 8.09 µM) | IC50 (HeLa [2]): 0.85 µg/mL (≈ 1.73 µM) | IC50 (HepG2): 3.96 µg/mL (≈ 8.07 µM) | IC50 at 48 h [3]: 30.1 µg/mL (≈ 61.4 µM) | IC50 at 48 h [4]: > 50 µg/mL | IC50 (HCT-116 [1]): 1.52 µg/mL (≈ 3.1 µM) | IC50 (MCF7 [20]): 0.92 µg/mL (≈ 1.88 µM) | IC50 (MDA-MB-231 [5]): 4.38 µg/mL (≈ 8.93 µM)

COc1cc(=O)oc(/C=C/C=C/C=C/[C@]2(C)O[C@]3(C)[C@@H](C(C)=O)[C@@](C)(O[C@@H]3C)[C@H]2C(C)=O)c1C
IC50 (HCT-116 [1]): 5.77 µg/mL (≈ 12.3 µM)

COc1cc(=O)oc(/C=C/C=C/C=C/[C@@]2(C)C[C@]3(C)O[C@H](C)[C@](C)(O2)[C@H]3C(=O)c2ccc(Cl)cc2)c1C
half-life [6]: 503 min | Tmax [7]: 7.2 min | MRT last [8]: 313 min | Activity (MDA-MB-231 [9]): Active | inhibition (MCF7 [10]): Active | IC50 (MGC-803): 1.54 µg/mL (≈ 2.93 µM) | Activity (MDA-MB-231 [11]): Active | IC50 (HeLa [2]): 1.35 µg/mL (≈ 2.57 µM) | Cmax [12]: 3040 ng/mL | IC50 (HepG2): 1.96 µg/mL (≈ 3.73 µM) | MRT inf [13]: 521 min | IC50 at 48 h [3]: > 50 µg/mL | IC50 at 48 h [4]: > 50 µg/mL | inhibition (HCT-116 [14]): Active | IC50 (HCT-116 [1]): 1.23 µg/mL (≈ 2.34 µM) | Vd [15]: 1.42 L/kg | clearance [16]: 2 mL/min/kg | AUC(0-inf) [17]: 8640 ng·h/mL | IC50 (MCF7 [20]): 0.68 µg/mL (≈ 1.3 µM) | AUC(0-t) [18]: 7710 ng·h/mL | Activity (MDA-MB-231 [21]): Active | inhibition (HeLa [19]): Active | IC50 (MDA-MB-231 [5]): 4.04 µg/mL (≈ 7.69 µM)

COc1cc(=O)oc(/C=C/C=C/C=C/[C@@]2(C)C[C@]3(C)O[C@H](C)[C@](C)(O2)[C@H]3C(=O)c2cccs2)c1C
inhibition (MCF7 [10]): Active | IC50 (MGC-803): 3.97 µg/mL (≈ 7.99 µM) | IC50 (HeLa [2]): 1.01 µg/mL (≈ 2.03 µM) | IC50 (HepG2): 2.42 µg/mL (≈ 4.87 µM) | IC50 at 48 h [3]: > 50 µg/mL | IC50 at 48 h [4]: > 50 µg/mL | inhibition (HCT-116 [14]): Active | IC50 (HCT-116 [1]): 0.63 µg/mL (≈ 1.27 µM) | IC50 (MCF7 [20]): 0.62 µg/mL (≈ 1.25 µM) | inhibition (HeLa [19]): Active | IC50 (MDA-MB-231 [5]): 2.87 µg/mL (≈ 5.78 µM)

COc1cc(=O)oc(/C=C/C=C/C=C/[C@@]2(C)C[C@]3(C)O[C@H](C)[C@](C)(O2)[C@H]3C(=O)c2ccccn2)c1C
IC50 (HCT-116 [1]): 11.4 µg/mL (≈ 23.3 µM)

CCC[C@@H]1[C@@]2(C)O[C@@](C)(/C=C/C=C/C=C/c3oc(=O)cc(OC)c3C)C[C@]1(C)O[C@@H]2C
IC50 (HCT-116 [1]): 5.9 µg/mL (≈ 13.8 µM)

COc1cc(=O)oc(/C=C/C=C/C=C/C(C)=C/C2(C)O[C@H](C)[C@](C)(O)[C@H]2O)c1C (some centres not stated)
IC50 (HCT-116 [1]): 19.8 µg/mL (≈ 49.1 µM)

COc1cc(=O)oc(/C=C/C=C/C=C/[C@@]2(C)C[C@]3(C)O[C@H](C)[C@](C)(O2)[C@H]3C(=O)c2cccnc2)c1C
IC50 (HCT-116 [1]): 12.5 µg/mL (≈ 25.4 µM)

COc1cc(=O)oc(/C=C/C=C/C=C/[C@@]2(C)C[C@]3(C)O[C@H](C)[C@](C)(O2)[C@H]3C(=O)CCc2ccc(Cl)cc2)c1C
IC50 (HCT-116 [1]): 4.89 µg/mL (≈ 8.84 µM)

COc1cc(=O)oc(/C=C/C=C/C=C/[C@@]2(C)C[C@]3(C)O[C@H](C)[C@](C)(O2)[C@H]3C(C)=O)c1C
IC50 (HCT-116 [1]): 7.04 µg/mL (≈ 16.4 µM)

COc1cc(=O)oc(/C=C/C=C/C=C/[C@]2(C)O[C@]3(C)[C@@H](C(=O)c4cccnc4)[C@@](C)(O[C@@H]3C)[C@H]2C(=O)c2cccnc2)c1C
IC50 (HCT-116 [1]): 12.5 µg/mL (≈ 21 µM)

COc1cc(=O)oc(/C=C/C=C/C=C/[C@@]2(C)C[C@]3(C)O[C@H](C)[C@](C)(O2)[C@H]3C(=O)Cc2ccc(Cl)cc2)c1C
IC50 (HCT-116 [1]): 6.44 µg/mL (≈ 11.9 µM)
